# Counter-ions that a name gives are not always drawn.
# Test system: HSV-1
# Assay: HSV-1 infection of Vero 76 cells, viral DNA detected by hybridization capture (chemiluminescence)
# Type: cell-based
# Conditions: Human alphaherpesvirus 1, Vero 76
# Outline: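 Vero 76 cells infected 45 min at 37° C with HSV-1 (MOI=0.001), seeded at 5×10^4 cells/well in 2% FBS medium with compounds, incubated 40–48 h, then lysed in 0.2 N NaOH/1% detergent. Viral DNA captured by UL13 plasmid, hybridized overnight at 42° C with digoxigenin-labeled UL15 probe, detected by anti-digoxigenin-HRP chemiluminescence.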
row,SMILES,IC50 [nM]
1,"CCOP(=O)(NCCCCNc1cccc2c(-c3ccnc(NC4CCCC4)n3)c(-c3ccc(OC)cc3)nn12)OCC [Example 89, Diethyl 4-{[3-[2-(cyclopentylamino)pyrimidin-4-yl]-2-(4-methoxyphenyl)pyrazolo[1,5-a]pyridin-7-yl]amino}butylamidophosphate]",800

# Same assay, conditions: Human alphaherpesvirus 1; HSV-1 in Vero 76 cells, MOI=0.001, compounds incubated 40–48 hours at 37° C.; read-out: IC50
row,IC50 [nM],SMILES
1,700,"COc1ccc(-c2nn3c(N)cccc3c2-c2ccnc(NC3CCCC3)n2)cc1 [Example 83, 3-[2-(Cyclopentylamino)pyrimidin-4-yl]-2-(4-methoxyphenyl)pyrazolo-[1,5-a]pyridin-7-amine]"
2,700,"[N-]=[N+]=Nc1cccc(-c2nn3c(NC4CCCC4)cccc3c2-c2ccnc(NC3CCCC3)n2)c1 [Example 93, 2-(3-Azidophenyl)-N-cyclopentyl-3-[2-(cyclopentylamino)pyrimidin-4-yl]pyrazolo[1,5-a]pyridin-7-amine]"
3,1100,"COc1ccc(-c2nn3c(NCCN)cccc3c2-c2ccnc(NC3CCCC3)n2)cc1 [Example 96, N′-[3-[2-(Cyclopentylamino)-4-pyrimidinyl]-2-(4-methoxyphenyl)pyrazolo[1,5-a]pyridin-7-yl]-1,2-ethanediamine]"
4,700,"Fc1cccc(-c2nn3c(N4CCOCC4)cccc3c2-c2ccnc(NC3CCCC3)n2)c1 [Example 97, N-Cyclopentyl-4-[2-(3-fluorophenyl)-7-(4-morpholinyl)pyrazolo[1,5-a]pyridin-3-yl]-2-pyrimidinamine]"
5,300,"FC(F)(F)c1cccc(-c2nn3c(NC4CCCC4)cccc3c2-c2ccnc(NC3CCCC3)n2)c1 [Example 98, N-Cyclopentyl-3-[2-(cyclopentylamino)-4-pyrimidinyl]-2-[3-(trifluoromethyl)phenyl]pyrazolo[1,5-a]pyridin-7-amine]"
6,500,"Clc1cccc(-c2nn3c(NC4CC4)cccc3c2-c2ccnc(NC3CC3)n2)c1 [Example 99, 2-(3-Chlorophenyl)-N-cyclopropyl-3-[2-(cyclopropylamino)-4-pyrimidinyl]pyrazolo[1,5-a]pyridin-7-amine]"
7,300,"Clc1cccc(-c2nn3c(NC4CCCC4)cccc3c2-c2ccnc(NC3CC3)n2)c1 [Example 100, 2-(3-Chlorophenyl)-N-cyclopentyl-3-[2-(cyclopropylamino)-4-pyrimidinyl]pyrazolo[1,5-a]pyridin-7-amine]"
8,200,"Clc1cccc(-c2nn3c(NC4CC4)cccc3c2-c2ccnc(NC3CCCC3)n2)c1 [Example 101, 2-(3-Chlorophenyl)-3-[2-(cyclopentylamino)-4-pyrimidinyl]-N-cyclopropylpyrazolo[1,5-a]pyridin-7-amine]"
9,700,"Fc1cccc(-c2nn3c(NC4CCCC4)cccc3c2-c2ccnc(NC3CC3)n2)c1 [Example 102, N-Cyclopentyl-3-[2-(cyclopropylamino)-4-pyrimidinyl]-2-(3-fluorophenyl)pyrazolo[1,5-a]pyridin-7-amine]"
10,500,"Clc1cccc(-c2nn3c(N4CCOCC4)cccc3c2-c2ccnc(NC3CCCC3)n2)c1 [Example 103, 4-[2-(3-Chlorophenyl)-7-(4-morpholinyl)pyrazolo[1,5-a]pyridin-3-yl]-N-cyclopentyl-2-pyrimidinamine]"
11,200,"COCCNc1cccc2c(-c3ccnc(NC4CCCC4)n3)c(-c3cccc(Cl)c3)nn12 [Example 104, 2-(3-Chlorophenyl)-3-[2-(cyclopentylamino)-4-pyrimidinyl]-N-(2-methoxyethyl)pyrazolo[1,5-a]pyridin-7-amine]"
12,600,"Fc1cccc(-c2nn3c(NC4CC4)cccc3c2-c2ccnc(NC3CCCC3)n2)c1 [Example 105, 3-[2-(Cyclopentylamino)-4-pyrimidinyl]-N-cyclopropyl-2-(3-fluorophenyl)pyrazolo[1,5-a]pyridin-7-amine]"
13,200,"COCCNc1cccc2c(-c3ccnc(NC4CCCC4)n3)c(-c3cccc(F)c3)nn12 [Example 106, 3-[2-(Cyclopentylamino)-4-pyrimidinyl]-2-(3-fluorophenyl)-N-(2-methoxyethyl)pyrazolo[1,5-a]pyridin-7-amine]"

# Further lines, the compound ahead of its results:
row,SMILES,IC50 [nM]
1,"COc1ccc(-c2nn3c(NCCCCNC(=O)CCCC[C@@H]4SC[C@@H]5NC(=O)N[C@@H]54)cccc3c2-c2ccnc(NC3CCCC3)n2)cc1 [Example 82, 5-[(3aS,4S,6aR)-2-Oxohexahydro-1H-thieno[3,4-d]imidazol-4-yl]-N-(4-{[3-[2-(cyclopentylamino)pyrimidin-4-yl]-2-(4-methoxyphenyl)pyrazolo[1,5-a]pyridin-7-yl]amino}butyl)pentanamide]",400
2,"COc1ccc(-c2nn3c(NCCCCNC(=N)N)cccc3c2-c2ccnc(NC3CCCC3)n2)cc1 [Example 85, N-(4-{[3-[2-(Cyclopentylamino)pyrimidin-4-yl]-2-(4-methoxyphenyl)pyrazolo[1,5-a]pyridin-7-yl]amino}butyl)guanidine]",4000
3,"COc1ccc(-c2nn3c(NCCCCNS(C)(=O)=O)cccc3c2-c2ccnc(NC3CCCC3)n2)cc1 [Example 86, N-(4-{[3-[2-(Cyclopentylamino)pyrimidin-4-yl]-2-(4-methoxyphenyl)pyrazolo[1,5-a]pyridin-7-yl]amino}butyl)methanesulfonamide]",600
4,"COc1ccc(-c2nn3c(NCCCCNC(=O)NS(=O)(=O)c4ccc(C)cc4)cccc3c2-c2ccnc(NC3CCCC3)n2)cc1 [Example 87, N-{[(4-{[3-[2-(Cyclopentylamino)pyrimidin-4-yl]-2-(4-methoxyphenyl)pyrazolo[1,5-a]pyridin-7-yl]amino}butyl)amino]carbonyl}-4-methylbenzenesulfonamide]",1000
5,"COc1ccc(-c2nn3c(NCCCCNC(=O)CCC(=O)O)cccc3c2-c2ccnc(NC3CCCC3)n2)cc1 [Example 88, 4-[(4-{[3-[2-(Cyclopentylamino)pyrimidin-4-yl]-2-(4-methoxyphenyl)pyrazolo[1,5-a]pyridin-7-yl]amino}butyl)amino]-4-oxobutanoic acid]",9000
6,"COc1ccc(-c2nn3c(NCCCCO)cccc3c2-c2ccnc(NC3CCCC3)n2)cc1 [Example 90, 4-{[3-[2-(Cyclopentylamino)pyrimidin-4-yl]-2-(4-methoxyphenyl)-pyrazolo[1,5-a]pyridin-7-yl]amino}butan-1-ol]",200
7,"COc1ccc(-c2nn3c(NCCCCOP(=O)(O)O)cccc3c2-c2ccnc(NC3CCCC3)n2)cc1 [Example 92, 4-{[3-[2-(Cyclopentylamino)pyrimidin-4-yl]-2-(4-methoxy-phenyl)pyrazolo[1,5-a]pyridin-7-yl]amino}butyl phosphate diammonium salt]",300
8,"COc1ccc(-c2nn3c(NCC(=O)N4CCCC4)cccc3c2-c2ccnc(NC3CCCC3)n2)cc1 [Example 94, 3-[2-(Cyclopentylamino)-4-pyrimidinyl]-2-(4-methoxyphenyl)-N-[2-oxo-2-(1-pyrrolidinyl)ethyl]pyrazolo[1,5-a]pyridin-7-amine]",6200
9,"COc1ccc(-c2nn3c(NCCNS(C)(=O)=O)cccc3c2-c2ccnc(NC3CCCC3)n2)cc1 [Example 95, N-(2-{[3-[2-(Cyclopentylamino)-4-pyrimidinyl]-2-(4-methoxy-phenyl)pyrazolo[1,5-a]pyridin-7-yl]amino}ethyl)methanesulfonamide]",300
